Measured values from patent publication US8741897B2, “Glucocorticoid mimetics, methods of making them, pharmaceutical compositions and uses thereof” (Boehringer Ingelheim Pharmaceuticals Inc., priority 2003, dated 2014).

Biological target: T1, human glucocorticoid receptor (GR) complex (Homo sapiens, UniProt P04150)
T1 construct: made in house; host or cells: insect expression system (baculovirus lysate)
T1 sequence (P04150 1-777): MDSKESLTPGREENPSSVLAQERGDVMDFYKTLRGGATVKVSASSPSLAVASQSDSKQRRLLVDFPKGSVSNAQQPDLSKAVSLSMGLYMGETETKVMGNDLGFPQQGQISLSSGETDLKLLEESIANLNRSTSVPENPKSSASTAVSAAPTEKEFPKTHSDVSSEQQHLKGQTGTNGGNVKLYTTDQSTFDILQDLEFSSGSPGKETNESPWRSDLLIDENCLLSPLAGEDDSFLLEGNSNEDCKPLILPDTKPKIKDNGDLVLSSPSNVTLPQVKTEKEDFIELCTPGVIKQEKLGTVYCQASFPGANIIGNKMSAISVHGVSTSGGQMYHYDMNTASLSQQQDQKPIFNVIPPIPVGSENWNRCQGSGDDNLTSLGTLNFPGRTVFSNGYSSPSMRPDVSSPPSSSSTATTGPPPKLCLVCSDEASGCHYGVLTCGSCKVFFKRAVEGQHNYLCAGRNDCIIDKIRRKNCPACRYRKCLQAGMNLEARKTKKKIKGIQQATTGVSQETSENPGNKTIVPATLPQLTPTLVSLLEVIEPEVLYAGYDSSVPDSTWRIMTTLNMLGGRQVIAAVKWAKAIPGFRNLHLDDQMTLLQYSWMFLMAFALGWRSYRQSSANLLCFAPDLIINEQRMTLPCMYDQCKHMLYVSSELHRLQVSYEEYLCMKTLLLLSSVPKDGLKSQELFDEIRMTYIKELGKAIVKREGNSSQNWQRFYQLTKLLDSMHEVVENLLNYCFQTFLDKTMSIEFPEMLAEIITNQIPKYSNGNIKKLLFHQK
Assay: Glucocorticoid receptor competitive binding assay (fluorescence polarization, TAMRA-labeled dexamethasone probe)
Conditions: compounds of Formula (IA)
Description: Compounds of the invention were evaluated for binding to the steroid receptor by a fluorescence polarization competitive binding assay. Detailed descriptions for preparation of recombinant glucocorticoid receptor (GR) complex used in the assay is described in U.S. patent application Pub.
A. Glucocorticoid Receptor Competitive Binding Assay
Step 1. Characterization of the Fluorescent Probe
The wavelengths for maximum excitation and emission of the fluorescent probe should first be measured. An example of such a probe is rhodamine (TAMRA)-labeled dexamethasone.
The affinity of the probe for the steroid receptor was then determined in a titration experiment. The fluorescence polarization value of the probe in assay buffer was measured on an SLM-8100 fluorometer using the excitation and emission maximum values described above. Aliquots of expression vector lysate were added and fluorescence polarization was measured after each addition until no further change in polarization value was observed. Non-linear least squares regression analysis was used to calculate the dissociation constant of the probe from the polarization values obtained for lysate binding to the probe.
Step 2. Screening for Inhibitors of Probe Binding
This assay uses fluorescence polarization (FP) to quantitate the ability of test compounds to compete with tetramethyl rhodamine (TAMRA)-labeled dexamethasone for binding to a human glucocorticoid receptor (GR) complex prepared from an insect expression system. The assay buffer was: 10 mM TES, 50 mM KCl, 20 mM Na2MoO4.2H2O, 1.5 mM EDTA, 0.04% w/v CHAPS, 10% v/v glycerol, 1 mM dithiothreitol, pH 7.4. Test compounds were dissolved to 1 mM in neat DMSO and then further diluted to 10× assay concentration in assay buffer supplemented with 10% v/v DMSO. Test compounds were serially diluted at 10× assay concentrations in 10% DMSO-containing buffer in 96-well polypropylene plates. Binding reaction mixtures were prepared in 96-well black Dynex microtiter plates by sequential addition of the following assay components to each well: 15 μL of 10× test compound solution, 85 μL of GR-containing baculovirus lysate diluted 1:170 in assay buffer, and 50 μL of 15 nM TAMRA-labeled dexamethasone. Positive controls were reaction mixtures containing no test compound; negative controls (blanks) were reaction mixtures containing 0.7 μM to 2 μM dexamethasone. […] IC50 values were determined by iterative non-linear curve fitting of the FP signal data to a 4-parameter logistic equation.

| activity in the GR binding assay | Compound |
| --- | --- |
| potent activity | COc1ccc(F)cc1C(C)(C)CC(O)(Cn1ccc2cnccc21)C(F)(F)F (centres unmarked) [1,1,1-Trifluoro-4-(5-fluoro-2-methoxyphenyl)-4-methyl-2-pyrrolo[3,2-c]pyridin-1-ylmethylpentan-2-ol] |
| potent activity | COc1ccc(F)cc1C(C)(C)CC(O)(Cc1cc2cc(C(=O)NCCO)ccc2[nH]1)C(F)(F)F (centres unmarked) [2-[4-(5-Fluoro-2-methoxyphenyl)-2-hydroxy-4-methyl-2-trifluoromethylpentyl]-1H-indole-5-carboxylic acid (2-hydroxyethyl)amide] |
| potent activity | COc1ccc(F)cc1C(C)(C)CC(O)(Cc1cc2ccc(C(=O)N3CCOCC3)cc2[nH]1)C(F)(F)F (centres unmarked) [{2-[4-(5-Fluoro-2-methoxyphenyl)-2-hydroxy-4-methyl-2-trifluoromethylpentyl]-1H-indol-6-yl}morpholin-4-ylmethanone] |
| potent activity | Cc1ccc(F)cc1C(C)(C)CC(O)(Cc1cc2cc(=O)n(C)cc2[nH]1)C(F)(F)F (centres unmarked) [2-[4-(5-Fluoro-2-methylphenyl)-2-hydroxy-4-methyl-2-trifluoromethylpentyl]-6-methyl-1,6-dihydropyrrolo[2,3-c]pyridin-5-one] |
| potent activity | COc1ccc(F)cc1C(C)(C)CC(O)(Cc1cc2nc(C)ncc2[nH]1)C(F)(F)F (centres unmarked) [1,1,1-Trifluoro-4-(5-fluoro-2-methoxyphenyl)-4-methyl-2-(2-methyl-5H-pyrrolo[3 ,2-d]pyrimidin-6-ylmethyl)pentan-2-ol] |
| potent activity | COc1ccc(F)cc1C(C)(C)CC(O)(Cc1cc2ccc(C(N)=O)cc2[nH]1)C(F)(F)F (centres unmarked) [2-[4-(5-Fluoro-2-methoxyphenyl)-2-hydroxy-4-methyl-2-trifluoromethylpentyl]-1H-indole-6-carboxylic acid amide] |
| potent activity | Cc1ccc(F)cc1C(C)(C)CC(O)(Cc1cc2nnccc2[nH]1)C(F)(F)F (centres unmarked) [1,1,1-Trifluoro-4-(5-fluoro-2-methylphenyl)-4-methyl-2-(5H-pyrrolo[3,2-c]pyridazin-6-ylmethyl)pentan-2-ol] |
| potent activity | CN(C)C(=O)c1ccc2cc(CC(O)(CC(C)(C)c3cc(F)ccc3O)C(F)(F)F)[nH]c2c1 (centres unmarked) [2-[4-(5-Fluoro-2-hydroxyphenyl)-2-hydroxy-4-methyl-2-trifluoromethylpentyl]-1H-indole-6-carboxylic acid dimethylamide] |
| potent activity | COc1ccc(F)cc1C(C)(C)CC(O)(Cc1cc2cnccc2o1)C(F)(F)F (centres unmarked) [1,1,1-Trifluoro-4-(5-fluoro-2-methoxyphenyl)-2-furo[3,2-c]pyridin-2-ylmethyl-4-methylpentan-2-ol] |
| potent activity | CN(C)c1ccc(C(C)(C)CC(O)(Cc2cc3ccccc3[nH]2)C(F)(F)F)cc1 (centres unmarked) [4-(4-Dimethylaminophenyl)-1,1,1-trifluoro-2-(1H-indol-2-ylmethyl)-4-methylpentan-2-ol] |

Tested on: glucocorticoid receptor function
Assay: one or more of the above assays (GR binding and glucocorticoid receptor cell assays: aromatase, IL-6, TAT, MMTV-Luc, IL-8, ICAM-Luc)
Type: cell-based
Conditions: assay not specified per compound

| Compound | activity as agonists of the glucocorticoid receptor function in one or more of the above assays |
| --- | --- |
| CC(C)(CC(O)(Cc1cc2cc(N3CCOCC3)ncc2[nH]1)C(F)(F)F)c1ccccc1 (centres unmarked) [1,1,1-Trifluoro-4-methyl-2-(5-morpholin-4-yl-1H-pyrrolo[2,3-c]pyridin-2-ylmethyl)-4-phenylpentan-2-ol] | potent agonists |
| COc1ccc(-c2ccccc2C#N)cc1C(C)(C)CC(O)(Cc1cc2cc(N3CCOCC3)ncc2[nH]1)C(F)(F)F (centres unmarked) [4′-Methoxy-3′-[4,4,4-trifluoro-3-hydroxy-1,1-dimethyl-3-(5-morpholin-4-yl-1 H-pyrrolo[2,3-c]pyridin-2-ylmethyl)butyl]biphenyl-2-carbonitrile] | potent agonists |
| CC(C)(CC(O)(Cc1cc2cc(N3CCOCC3)ncc2[nH]1)C(F)(F)F)c1cc(-c2ccccc2C#N)ccc1O (centres unmarked) [4′-Hydroxy-3′-[4,4,4-trifluoro-3-hydroxy-1,1-dimethyl-3-(5-morpholin-4-yl-1H-pyrrolo[2,3-c]pyridin-2-ylmethyl)butyl]biphenyl-2-carbonitrile] | potent agonists |
| Cc1ccc(F)cc1C(C)(C)CC(O)(Cc1cc2cc(N(C)C(C)C)ncc2[nH]1)C(F)(F)F (centres unmarked) [1,1,1-Trifluoro-4-(5-fluoro-2-methylphenyl)-2-[5-(isopropylmethylamino)-1H-pyrrolo[2,3-c]pyridin-2-ylmethyl]-4-methylpentan-2-ol] | potent agonists |
| CCC(=O)c1ccc2[nH]c(CC(O)(CC(C)(C)c3cc(Cl)cc4c3OCC4)C(F)(F)F)cc2n1 (centres unmarked) [1-{2-[4-(5-Chloro-2,3-dihydrobenzofuran-7-yl)-2-hydroxy-4-methyl-2-trifluoromethylpentyl]-1H-pyrrolo[3,2-b]pyridin-5-yl}propan-1-one] | potent agonists |
| COc1nccc2[nH]c(CC(O)(CC(C)(C)c3cc(F)ccc3C)C(F)(F)F)cc12 (centres unmarked) [1,1,1-Trifluoro-4-(5-fluoro-2-methylphenyl)-2-(4-methoxy-1H-pyrrolo[3,2-c]pyridin-2-ylmethyl)-4-methylpentan-2-ol] | potent agonists |
| CC(C)(CC(O)(Cn1ccc2c1CCCC2=O)C(F)(F)F)c1cc(F)ccc1O (centres unmarked) | agonists |
| 4-Pyrimidin-5-yl-2-[4,4,4-trifluoro-3-hydroxy-1,1-dimethyl-3-(1H-pyrrolo[2,3-c]pyridin-ylmethyl)butyl]phenol | potent agonists |
| CC(C)(CC(O)(Cc1cc2nc(CO)ccc2[nH]1)C(F)(F)F)c1cc(Cl)cc2c1OCC2 (centres unmarked) [4-(5-Chloro-2,3-dihydrobenzofuran-7-yl)-1,1,1-trifluoro-2-(5-hydroxymethyl-1H-pyrrolo[3,2-b]pyridin-2-ylmethyl)-4-methylpentan-2-ol] | potent agonists |
| CC(C)(CC(O)(Cc1cc2cc(N3CCOCC3)ncc2[nH]1)C(F)(F)F)c1cccc(F)c1 (centres unmarked) [1,1,1-Trifluoro-4-(3-fluorophenyl)-4-methyl-2-(5-morpholin-4-yl-1H-pyrrolo[2,3-c]pyridin-2-ylmethyl)pentan-2-ol] | potent agonists |
| COc1ccc(F)cc1C(C)(C)CC(O)(Cc1cc2cc(N3CCOCC3)ncc2[nH]1)C(F)(F)F (centres unmarked) [1,1,1-Trifluoro-4-(5-fluoro-2-methoxyphenyl)-4-methyl-2-(5-morpholin-4-yl-1H-pyrrolo[2,3-c]pyridin-2-ylmethyl)pentan-2-ol] | potent agonists |
| COc1ccc(F)cc1C(C)(C)CC(O)(Cc1cc2ccncc2[nH]1)C1(F)CC1 (centres unmarked) [2-(1-Fluorocyclopropyl)-4-(5-fluoro-2-methoxyphenyl)-4-methyl-1-(1H-pyrrolo[2,3-c]pyridin-2-yl)pentan-2-ol] | agonists |
| CC(C)(CC(O)(Cn1ccc2ncccc21)C(F)F)c1cc(Cl)cc2c1OCC2 (centres unmarked) [4-(5-Chloro-2,3-dihydrobenzofuran-7-yl)-1,1-difluoro-4-methyl-2-pyrrolo[3,2-b]pyridin-1-ylmethylpentan-2-ol] | agonists |
